The text below walks through data of publication PMC4013053, “Identification of Selective Small Molecule Inhibitors of the Nucleotide-Binding Oligomerization Domain 1 (NOD1) Signaling Pathway” (PLoS ONE, 2014).

Each structure is given as a SMILES string. Values after ≈ are worked out from the molar mass of the structure shown. Where only a bound is given, the exact number is not on record here.

Data set [1] deals with T1, NOD1 (Homo sapiens, UniProt Q9Y239).
T1 sequence (Q9Y239 1-953): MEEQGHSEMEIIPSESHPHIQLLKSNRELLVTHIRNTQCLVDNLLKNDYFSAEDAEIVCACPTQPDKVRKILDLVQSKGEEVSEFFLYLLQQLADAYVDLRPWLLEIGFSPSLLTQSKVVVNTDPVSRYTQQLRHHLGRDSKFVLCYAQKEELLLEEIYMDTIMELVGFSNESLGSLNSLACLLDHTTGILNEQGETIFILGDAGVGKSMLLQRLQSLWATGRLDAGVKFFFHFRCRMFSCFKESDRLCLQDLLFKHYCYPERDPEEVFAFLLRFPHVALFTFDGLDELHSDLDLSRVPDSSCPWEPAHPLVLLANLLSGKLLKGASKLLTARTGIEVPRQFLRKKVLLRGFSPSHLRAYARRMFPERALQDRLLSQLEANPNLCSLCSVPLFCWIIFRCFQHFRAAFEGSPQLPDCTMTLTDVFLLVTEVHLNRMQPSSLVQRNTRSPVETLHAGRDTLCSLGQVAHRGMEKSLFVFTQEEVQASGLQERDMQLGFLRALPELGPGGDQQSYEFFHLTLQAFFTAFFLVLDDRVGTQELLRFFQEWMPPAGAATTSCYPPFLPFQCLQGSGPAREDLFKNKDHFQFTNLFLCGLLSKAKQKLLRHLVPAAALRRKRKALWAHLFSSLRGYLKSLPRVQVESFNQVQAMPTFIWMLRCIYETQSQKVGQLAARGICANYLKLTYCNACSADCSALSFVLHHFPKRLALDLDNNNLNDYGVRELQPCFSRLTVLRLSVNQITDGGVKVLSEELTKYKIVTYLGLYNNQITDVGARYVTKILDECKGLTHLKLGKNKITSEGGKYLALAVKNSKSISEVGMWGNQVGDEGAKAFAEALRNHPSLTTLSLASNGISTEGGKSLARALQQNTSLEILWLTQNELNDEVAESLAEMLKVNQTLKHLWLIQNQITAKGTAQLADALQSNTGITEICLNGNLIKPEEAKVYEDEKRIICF
The data set can be described thus: iE-DAP-stimulated IL-8 release in 293/hNOD1 cells. It counts as cell-based. As for the experimental part: Inhibitors of iE-DAP-stimulated IL-8 release were screened in a 1536-well assay in which 293/hNOD1 cells (5000 cells/well) in DMEM high glucose medium supplemented with 0.1% FBS and 10 µg/mL Blasticidin S were stimulated with 60 ng/mL (200 nM) iE-DAP (EC80) in the presence of 10 µM compounds. After 24 hours the amount of IL-8 secreted into the medium was determined by homogeneous time resolved fluorescence (HTRF) assay by the direct addition of a 1∶1 mix of europium cryptate and XL665-conjugated anti-IL-8 antibodies according to the manufacturer’s instructions (Cisbio). Fluorescence was measured after 2 hours in a ViewLux imager using UMB-AMC excitation and 618–671 nm emission filters (Perkin Elmer). […] Inhibition of TNFR1-induced IL-8 release was performed with 293/hNOD1 cells stimulated with 20 ng/mL (∼EC95) rhTNFα.
A high-throughput screen of about 2.2 million compounds was conducted for inhibitors of the NOD1 signaling pathway using suppression of iE-DAP stimulated IL-8 secretion in HEK293 cells stably expressing human NOD1 (293/hNOD1 cells). […] These assays were chosen to assess the selectivity of hits because the signaling pathways activated by these receptors converge at the level of the TAB/TAK1/IKK complex.

For another data set, the target named is NOD2 (Homo sapiens, UniProt Q9HC29). The data set can be described thus: MDP-stimulated IL-8 release in 293/hNOD2 cells. The data set is classed as cell-based. As to conditions: HEK293 stably expressing human NOD2, IL-8 released into medium.
Sequence of NOD2 (Q9HC29 whole entry): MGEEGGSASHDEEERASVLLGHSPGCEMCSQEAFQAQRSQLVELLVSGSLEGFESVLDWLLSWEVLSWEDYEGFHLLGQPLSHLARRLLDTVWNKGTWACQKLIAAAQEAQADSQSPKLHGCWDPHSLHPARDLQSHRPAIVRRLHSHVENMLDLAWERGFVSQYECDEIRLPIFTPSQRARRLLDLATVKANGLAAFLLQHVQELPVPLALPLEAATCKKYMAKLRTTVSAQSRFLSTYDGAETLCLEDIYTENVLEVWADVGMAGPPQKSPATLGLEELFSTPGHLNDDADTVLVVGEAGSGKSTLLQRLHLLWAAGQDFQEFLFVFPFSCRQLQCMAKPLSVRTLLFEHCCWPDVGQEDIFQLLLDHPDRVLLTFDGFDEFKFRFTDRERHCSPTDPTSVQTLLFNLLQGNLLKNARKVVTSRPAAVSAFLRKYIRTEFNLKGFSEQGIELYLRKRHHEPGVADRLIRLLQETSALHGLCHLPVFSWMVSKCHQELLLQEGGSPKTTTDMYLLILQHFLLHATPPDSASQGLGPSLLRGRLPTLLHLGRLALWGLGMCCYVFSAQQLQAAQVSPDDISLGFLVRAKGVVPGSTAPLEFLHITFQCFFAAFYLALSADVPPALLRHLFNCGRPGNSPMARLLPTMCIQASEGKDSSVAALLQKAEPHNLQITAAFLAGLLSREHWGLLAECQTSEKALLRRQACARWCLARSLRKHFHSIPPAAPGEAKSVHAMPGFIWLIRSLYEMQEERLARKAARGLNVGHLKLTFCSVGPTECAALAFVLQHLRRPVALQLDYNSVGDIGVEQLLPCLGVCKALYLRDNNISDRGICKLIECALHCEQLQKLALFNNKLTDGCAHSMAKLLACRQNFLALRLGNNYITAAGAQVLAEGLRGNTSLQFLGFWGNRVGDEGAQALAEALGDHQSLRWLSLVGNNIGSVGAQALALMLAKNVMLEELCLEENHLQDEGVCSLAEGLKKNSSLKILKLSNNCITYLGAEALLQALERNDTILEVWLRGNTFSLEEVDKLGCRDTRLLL
The target in a further data set is TLR2 (Homo sapiens, UniProt O60603). The data set can be described thus: Pam2CSK4-stimulated IL-8 release in 293/hTLR2 cells. The data set is classed as cell-based. Conditions: IL-8 released into medium.
Sequence of TLR2 (O60603 21-784): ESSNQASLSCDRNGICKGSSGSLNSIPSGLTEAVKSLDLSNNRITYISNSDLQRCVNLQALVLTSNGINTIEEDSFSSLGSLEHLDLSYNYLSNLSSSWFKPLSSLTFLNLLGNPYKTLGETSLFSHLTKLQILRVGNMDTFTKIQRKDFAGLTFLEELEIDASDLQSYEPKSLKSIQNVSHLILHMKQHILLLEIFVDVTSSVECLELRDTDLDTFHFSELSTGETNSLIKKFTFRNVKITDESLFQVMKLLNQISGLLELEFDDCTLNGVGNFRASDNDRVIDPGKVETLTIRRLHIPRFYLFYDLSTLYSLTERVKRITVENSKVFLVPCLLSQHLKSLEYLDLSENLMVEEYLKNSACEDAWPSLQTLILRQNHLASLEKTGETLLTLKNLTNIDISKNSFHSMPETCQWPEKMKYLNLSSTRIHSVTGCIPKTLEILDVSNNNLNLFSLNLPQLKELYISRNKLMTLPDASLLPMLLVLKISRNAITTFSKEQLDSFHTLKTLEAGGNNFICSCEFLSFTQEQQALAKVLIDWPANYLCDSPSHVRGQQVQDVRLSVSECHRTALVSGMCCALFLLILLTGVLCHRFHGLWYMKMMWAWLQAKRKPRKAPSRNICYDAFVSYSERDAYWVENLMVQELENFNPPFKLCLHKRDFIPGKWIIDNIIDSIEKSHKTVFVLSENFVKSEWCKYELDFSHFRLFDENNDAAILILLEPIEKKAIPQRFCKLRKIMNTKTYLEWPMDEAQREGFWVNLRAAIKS
Data set [2] deals with NOD1. The data set can be described thus: Tri-DAP stimulated IL-8 release in HT-29 cells. As to conditions: HT-29, 50 µg/mL Tri-DAP 24 hours, same supernatants. The data set is classed as cell-based, human. As for the experimental part: (§1) For assay, cells were seeded into 96 well plates (90,000 cells/well) in DMEM containing 1% FBS and pre-incubated with compounds for 1 hour before addition of either 25 µg/mL Tri-DAP or 1 µg/mL MDP. The level of IL-8 released into medium after 24-hour incubation was determined by HTRF assay (Cisbio) as described above and fluorescence measured on an Envision model 2102 multilabel plate reader (Perkin Elmer). The activity of compounds against NOD1-induced type I interferon response was determined by inhibition of Tri-DAP stimulated IP-10 secretion in HT-29 cells, maintained in the same medium as for HCT116 cells. The HT-29 cells were seeded into 96 well plates (60,000 cells/well) in DMEM with 1% FBS, pre-incubated with compounds for 1 hour and stimulated for 24 hours with 50 µg/mL Tri-DAP. The concentration of IL-8 released into the medium was measured by HTRF as above, IP-10 was measured using the IP-10/CXCL10 Quantikine ELISA kit (R&D Systems), and IFNβ was measured using the MA6000 human IFN-β tissue culture kit (Meso Scale Discovery).

The next data set in a line: CLND solubility. It counts as physicochemical. Conditions: phosphate buffered saline with 5% DMSO, pH 7.4, aqueous buffer, kinetic from dmso stock; 5% DMSO pH7.4 phosphate buffered saline. An excerpt: (§2) Physicochemical analyses of compounds were completed at GSK.
Data set [3] is described as follows: Chromatographic hydrophobicity index (Chrom log D). It counts as physicochemical. Conditions: pH 7.4.
Description: as §2

The nature of data set [4]: Permeability across an artificial membrane. It counts as in vitro ADME. Conditions: PAMPA.
Description: as §2

A further data set deals with human serum albumin (Homo sapiens, UniProt P02768). The data set can be described thus: Human serum albumin (HSA) binding. It counts as in vitro ADME.
Sequence of human serum albumin (P02768 25-609): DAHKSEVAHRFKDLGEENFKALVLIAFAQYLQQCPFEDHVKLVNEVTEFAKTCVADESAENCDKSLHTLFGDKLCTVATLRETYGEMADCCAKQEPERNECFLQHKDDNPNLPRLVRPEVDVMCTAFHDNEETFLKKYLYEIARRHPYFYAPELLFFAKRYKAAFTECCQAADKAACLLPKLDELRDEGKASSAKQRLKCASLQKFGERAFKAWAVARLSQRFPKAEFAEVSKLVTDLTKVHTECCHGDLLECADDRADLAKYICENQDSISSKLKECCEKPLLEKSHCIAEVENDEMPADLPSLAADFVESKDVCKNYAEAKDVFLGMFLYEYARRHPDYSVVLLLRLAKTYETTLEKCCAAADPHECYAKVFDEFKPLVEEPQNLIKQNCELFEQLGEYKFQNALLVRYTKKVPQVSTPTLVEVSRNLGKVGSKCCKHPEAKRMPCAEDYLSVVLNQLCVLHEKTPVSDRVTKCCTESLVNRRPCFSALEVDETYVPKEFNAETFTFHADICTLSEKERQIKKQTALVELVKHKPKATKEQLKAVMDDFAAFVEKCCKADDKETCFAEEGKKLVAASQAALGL
Description: as §2

Data set [5] deals with T1, NOD1. The data set can be described thus: Tri-DAP-stimulated IL-8 secretion in primary human monocytes. More on the design: Monocytes were purified from heparinized human whole blood; endogenous in cells; host or cells: primary human blood monocytes. Conditions: human primary peripheral blood monocytes, IL-8 released into medium; read-out: IC50 Monocyte Tri-DAP. It counts as cell-based. The procedure:
Monocytes were purified from heparinized human whole blood by centrifugation on Ficoll (Histopaque 1077) followed by Percoll gradients. Monocyte purity was >95% by morphological assessment of Wright’s stained cytospins. Cells were seeded at 100,000 per well in 96-well plates in RPMI containing 10%HI-FBS, pre-incubated for 1 hour with compounds, and then stimulated with either 25 µg/mL Tri-DAP or 1 µg/mL MDP. The concentration of IL-8 in medium samples collected after 24-hour treatment was determined by HTRF whereas IL-1β, IL-6 and TNFα were measured using the MS6000 human pro-inflammatory-4 II tissue culture kit (Meso Scale Discovery).

For the next data set, the target named is T2, endogenous NOD2 (Homo sapiens, UniProt Q9HC29).
T2 construct: Compound activity on endogenous NOD1 and NOD2 receptors was determined; host or cells: HCT116
T2 sequence (Q9HC29 whole entry): as the sequence (Q9HC29 whole entry) above
The data set can be described thus: MDP-stimulated IL-8 release in HCT116 cells. The data set is classed as cell-based. Conditions: for IC50: human colon carcinoma cells, IL-8 released into medium. The procedure:
as §1

The mark [6] stands for this setting: HEK293 stably expressing human NOD1, IL-8 released into medium, read-out: IC50 293/hNOD1 iE-DAP.

In general, solubility refers to how much of the substance goes into solution per volume. A word on the chromatographic logD: it is lipophilicity estimated from chromatographic retention. Broadly, the Papp is a coefficient for how fast a substance crosses the barrier. As for `Cc1ccc(S(=O)(=O)Nc2cccc(C(=O)Nc3ccc4nc(C)sc4c3)c2)cc1` [Compound 16], the IC50 was 400 nM at NOD1 [1] (setting [6]); 430 ± 100 nM on NOD1 [1] (iE-DAP-stimulated IL-8 production in 293/hNOD1 cells, SAR figures, read-out: NOD1 XC50); over 30000 nM on NOD2; over 50000 nM at TLR2; 40 nM in the data set with NOD1 [2]; 200 nM at NOD1 [5]. The molecule also showed a solubility in “CLND solubility” of 14 µM (≈ 6.13 µg/mL). This molecule showed a chromatographic logD in data set [3] of 4.89. In data set [4], this molecule showed an apparent permeability (Papp) of 22 ×10⁻⁶ cm/s. The HSA binding at human serum albumin came out at 97.2%.

Take `Cc1nc2ccccc2c(=O)n1-c1ccc(Cl)c(NS(=O)(=O)c2ccccc2F)c1` [Compound 22]: the IC50 on NOD1 [1] (setting [6]) was 60 nM; on NOD2, over 50000 nM; on endogenous NOD2, over 15000 nM; on TLR2, over 50000 nM; with NOD1 [2], 30 nM; on NOD1 [5], 60 nM.

Take `CCc1ccc(S(=O)(=O)Nc2cc(-n3c(C)nc4ccccc4c3=O)ccc2F)s1` [GSK223]: the IC50 is 1000 nM on NOD1 [1] (setting [6]); over 50000 nM at NOD2; over 50000 nM at endogenous NOD2; over 50000 nM on TLR2; 1000 nM at NOD1 [5]. Moreover, at endogenous NOD2 (HCT116, at high concentrations), the “greatest inhibition of MDP-stimulated IL-8 release” value is given as 30%. In the data set “CLND solubility”, the solubility was 327 µM (≈ 145 µg/mL). Besides, the chromatographic logD in data set [3] was found to be 4.27. The molecule further returned a Papp in data set [4] of 49 ×10⁻⁶ cm/s. This molecule also gave an HSA binding on human serum albumin of 97.38%.

Take `Cc1nc2ccc(NC(=O)c3cccc(NS(=O)(=O)c4ccc(F)cc4)c3)cc2s1` [GSK966]: the IC50 at NOD1 [1] (setting [6]) was 3500 nM; at TLR2 it was over 50000 nM; on NOD1 [5], 2000 nM. The solubility in the data set “CLND solubility” was found to be 41 µM (≈ 18.1 µg/mL). The same molecule came in with a chromatographic logD in [3] of 4.64. In data set [4], this molecule came in with an apparent permeability coefficient (Papp) of 30 ×10⁻⁶ cm/s. The molecule further showed an HSA binding on human serum albumin of 97.14%.

`Cn1c(=O)[nH]c(=O)c2c1nc(CCSc1ccccc1)n2Cc1ccccc1` [SB711]: the IC50 on NOD1 [1] (setting [6]) is 600 nM; on NOD2 it was over 50000 nM; at endogenous NOD2, over 50000 nM; at TLR2 it was over 50000 nM; at NOD1 [5], 3200 nM. The same molecule displayed a solubility in “CLND solubility” of 2 µM (≈ 0.785 µg/mL). In addition, the chromatographic logD in [3] came out at 5.95. This molecule also registered an HSA binding at human serum albumin of 95.94%.
